Reference: ChEMBL document CHEMBL1201862, “PubChem BioAssay data set” (2004)
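A five-concentration, 48-hour dose response in 96-well plates underlies each endpoint, interpolated linearly between surrounding concentrations. GI50 is the concentration that inhibits growth by half.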 Calls of active or inactive are those of the source. Rule as the data show it: active = GI50 up to about 1.1 µM and inactive = higher.

Tests used:
Assay in all cases: NCI tumour cell line growth inhibition, 48 h
NCI-H226 = system: NCI-H226
HCT-15 = system: HCT-15
MDA-MB-231 = system: MDA-MB-231
SNB-75 = system: SNB-75
Hs-578T = system: Hs-578T
MDA-N = system: MDA-N
NCI-H460 = system: NCI-H460
RPMI-8226 = system: RPMI-8226
CAKI-1 = system: CAKI-1
ACHN = system: ACHN
U-251 = system: U-251
A498 = system: A498
LOX IMVI = system: LOX IMVI
SK-MEL-5 = system: SK-MEL-5
786-0 = system: 786-0
T47D = system: T47D
SR = system: SR
NCI/ADR-RES = system: NCI/ADR-RES
Malme-3M = system: Malme-3M
HL-60 = system: HL-60

SMILES | GI50 (NCI-H226) | GI50 (HCT-15) [µM] | GI50 (MDA-MB-231) | GI50 (SNB-75) | GI50 (Hs-578T) | GI50 (MDA-N) | GI50 (NCI-H460) | GI50 (RPMI-8226) | GI50 (CAKI-1) | GI50 (ACHN) | GI50 (U-251) | GI50 (A498) | GI50 (LOX IMVI) | GI50 (SK-MEL-5) | GI50 (786-0) | GI50 (T47D) | GI50 (SR) | GI50 (NCI/ADR-RES) | GI50 (Malme-3M) | GI50 (HL-60)
COc1cc(/C=C/c2cc(/C=C/c3ccc(O)c(OC)c3)oc(=O)c2)ccc1O | 10.5 µM (inactive) | 3.12 | 13.9 µM (inactive) | 0.393 µM (active) | 4.54 µM (inactive) | 4.7 µM (inactive) | 2.29 µM (inactive) | 2.3 µM (inactive) | 3.61 µM (inactive) | 3.26 µM (inactive) | 3.07 µM (inactive) | 3.9 µM (inactive) | 3.71 µM (inactive) | 4.99 µM (inactive) | 5.62 µM (inactive) | 0.272 µM (active) | 3.07 µM (inactive) | 4.38 µM (inactive) | 2.66 µM (inactive) | 
N/C(=N\c1ccc(Cl)cc1)NS(=O)(=O)c1ccc(S(=O)(=O)c2ccccc2)s1 | 26.4 µM (inactive) | 17.5 | 12.9 µM (inactive) | 35.7 µM (inactive) | 24 µM (inactive) | 18.5 µM (inactive) | 17.3 µM (inactive) | 16.6 µM (inactive) |  | 20.9 µM (inactive) | 14.4 µM (inactive) | 17.4 µM (inactive) | 16.3 µM (inactive) | 15.8 µM (inactive) | 19.9 µM (inactive) | 17 µM (inactive) | 24.8 µM (inactive) | 18 µM (inactive) | 20 µM (inactive) | 22.3 µM (inactive)
O=C1C[C@H](CCC(=O)OCc2ccccc2)NC(=O)C[C@H](CCC(=O)OCc2ccccc2)NC(=O)C[C@H](CCC(=O)OCc2ccccc2)N1 | > 100 µM (inactive) | > 100 | 14.2 µM (inactive) | 2.22 µM (inactive) | 5.24 µM (inactive) | > 100 µM (inactive) | > 100 µM (inactive) | > 100 µM (inactive) | > 100 µM (inactive) | 17.1 µM (inactive) | 5.24 µM (inactive) | 7.57 µM (inactive) | > 100 µM (inactive) | > 100 µM (inactive) | 8.15 µM (inactive) | 44.3 µM (inactive) | > 100 µM (inactive) | 82.4 µM (inactive) | > 100 µM (inactive) | 
CN(C)c1ccc(/C=C2\N=C(c3ccccc3)N(c3nc4c(Cl)cc(Cl)cc4s3)C2=O)cc1 |  | 43.6 | 29.7 µM (inactive) |  | 27 µM (inactive) | 22.9 µM (inactive) | 27.7 µM (inactive) | 14.9 µM (inactive) | 41.8 µM (inactive) | 59 µM (inactive) | 55.3 µM (inactive) | 27.4 µM (inactive) | 38.3 µM (inactive) | 41.8 µM (inactive) | 77.1 µM (inactive) | 52.5 µM (inactive) | 32.1 µM (inactive) | 43.7 µM (inactive) |  | 24.9 µM (inactive)
O=C(O)CC12CC3CC(CC(O)(C3)C1)C2 | > 100 µM (inactive) | > 100 | > 100 µM (inactive) | > 100 µM (inactive) | 27.5 µM (inactive) | > 100 µM (inactive) | > 100 µM (inactive) | > 100 µM (inactive) | > 100 µM (inactive) | > 100 µM (inactive) | > 100 µM (inactive) | > 100 µM (inactive) | > 100 µM (inactive) | > 100 µM (inactive) | > 100 µM (inactive) | > 100 µM (inactive) | > 100 µM (inactive) | > 100 µM (inactive) | 34.7 µM (inactive) | 
CN(C)CCNc1ncnc2[nH]c(-c3ccc4ccccc4c3)nc12 | > 100 µM (inactive) | > 100 | > 100 µM (inactive) |  | > 100 µM (inactive) | > 100 µM (inactive) | > 100 µM (inactive) | > 100 µM (inactive) | > 100 µM (inactive) | > 100 µM (inactive) | > 100 µM (inactive) |  | > 100 µM (inactive) | > 100 µM (inactive) | > 100 µM (inactive) | > 100 µM (inactive) | > 100 µM (inactive) | > 100 µM (inactive) | > 100 µM (inactive) | > 100 µM (inactive)
C[C@H]1/C(=C/C(=O)OCCN(C)C)CC[C@H]2[C@H]1C(=O)C[C@H]1C(C)(C)[C@@H](O)CC[C@]21C | 22.5 µM (inactive) | > 100 | > 100 µM (inactive) |  | > 100 µM (inactive) | > 100 µM (inactive) | > 100 µM (inactive) | > 100 µM (inactive) | > 100 µM (inactive) | > 100 µM (inactive) | > 100 µM (inactive) | > 100 µM (inactive) | > 100 µM (inactive) | > 100 µM (inactive) | > 100 µM (inactive) | > 100 µM (inactive) | > 100 µM (inactive) | > 100 µM (inactive) | > 100 µM (inactive) | > 100 µM (inactive)
